System: CEM cells HIV-1 protection, formazan growth assay
Experiment: NCI AIDS Antiviral Assay
Conditions: for IC50: measured here: growth of uninfected CEM cells
Outline: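 Soluble formazan readout of cell growth; CEM cells ± HIV-1; 5 drug concs. ≥50% protection → retest; ≥50% again = moderately active; reproducible 100% = confirmed active.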

Question: What does the source list for O=C(Nc1nc(C23CC4CC(CC(C4)C2)C3)cs1)c1cc2c(ccc3ccccc32)oc1=O?
Answer: EC50: > 200 µM; IC50: > 200 µM

Question: With O=C(Cn1cc(-c2ccccc2)nn1)NC1CCCCC1 as the molecule, how does the EC50 read?
Answer: > 200 µM

Question: And the IC50?
Answer: > 200 µM

Question: Which results are given for Cc1ccccc1-n1c(=O)c2ncn(C3CCCO3)c2n(-c2ccccc2C)c1=S (centres undefined)?
Answer: EC50: > 200 µM; IC50: > 200 µM

Question: Which results are given for CCOC(=O)/C(F)=C/c1cccc(C#N)c1?
Answer: EC50: > 117 µM; IC50: > 117 µM

Question: Cn1c(=O)c2c(nnc(-c3ccccc3)[n+]2[O-])n(C)c1=O was tested. Which EC50 did it give?
Answer: > 200 µM

Question: What about the IC50 of the same molecule?
Answer: 87.1 µM

Question: CC1=Nc2nc3ccccc3n2C(C)(C)C1 was tested. Which EC50 did it give?
Answer: > 174 µM

Question: And the IC50?
Answer: 112 µM

Question: With CC1CN=C(NCc2ccccc2)S1 (centres undefined) as the molecule, how does the EC50 read?
Answer: > 200 µM

Question: What about the IC50 of the same molecule?
Answer: > 200 µM
